In patent US20160137746A1, “METHODS FOR TREATING HIGH CARDIOVASCULAR RISK PATIENTS WITH HYPERCHOLESTEROLEMIA” (Sanofi Biotechnology, priority 2014, published 2016):
Values joined by “and” are separate entries in the source; they are usually repeats but may differ in a detail not shown here. Equal entries are not always repeated.

Experiments:
[1] = test system: high cardiovascular risk patients with hypercholesterolemia; experiment: ODYSSEY LONG TERM: ophthalmologic sub-study; format: in vivo, human; settings: including the ophthalmological sub-study
Description: Patients underwent ophthalmologic assessments by ophthalmologists/optometrists at the screening period. If the patients were deemed eligible for the main study trial and fulfilled the additional eligibility criteria for the sub-study, then the patients underwent ophthalmologic assessments every 6 months during the 18-month double-blind treatment period
The primary endpoint was adverse events related to ophthalmologic abnormalities (using SMQ “optic nerve disorders”, “retinal disorders” and “corneal disorders”) over the study duration.

[2] = test system: high cardiovascular risk patients with hypercholesterolemia; experiment: ODYSSEY LONG TERM: lipid efficacy of alirocumab 150 mg Q2W vs placebo; format: in vivo, human; settings: for Percent change from baseline in calculated LDL-C at week 24 (%), LS means (SE) / Percent change from baseline in calculated LDL-C at week 24, LS mean difference (SE) vs placebo / Calculated LDL-C percent change from baseline, LS mean (SE): ITT population; for Percent change from baseline in calculated LDL-C at week 24 (%), LS means (SE) / Percent change from baseline in calculated LDL-C at week 24, LS mean difference (SE) vs placebo: 150 Q2W; for Calculated LDL-C percent change from baseline, LS mean (SE): MMRM, alirocumab 150 Q2W
Experimental: Patients were stratified according to heFH population, prior history of MI or ischemic stroke, statin treatment and geographic region. Patients at high cardiovascular risk were defined as 1) having heFH (who may or may not have CHD/CHD risk equivalents) or 2) no prior diagnosis of heFH but having hypercholesterolemia together with established CHD or CHD risk equivalents.
Primary analyses of efficacy endpoints were conducted using an ITT approach (based on the ITT population defined above), including all lipid data, regardless of whether the patient was continuing therapy or not. This corresponds to ITT estimands, defined for primary and key secondary endpoints. In addition, analyses were also conducted using an on-treatment approach (based on the mITT population defined above), including lipid data collected during the efficacy treatment period. This corresponds to on-treatment estimands of key secondary endpoints.
With regards to the primary efficacy analysis (ITT approach), the percent change in calculated LDL-C from baseline to Week 24 was analyzed using a mixed-effect model with repeated measures (MMRM) approach. All post-baseline data available from Week 4 to Week 52 analysis windows were used and missing data were accounted for by the MMRM. […] This model provided baseline adjusted least-squares means (LSmeans) estimates at Week 24 for both treatment groups with their corresponding SEs and 95% confidence intervals.
Continuous secondary variables anticipated to have a normal distribution (i.e., lipids other than TGs and Lp(a)) were analyzed using the same MMRM model as for the primary endpoint. […] Combined estimate for mean in both treatment groups, as well as the differences of these estimates, with their corresponding SEs, 95% Cls and p-value were provided (through SAS MIANALYZE procedure).
Binary secondary efficacy endpoints were analyzed using multiple imputation approach for handling of missing values followed by stratified logistic regression with treatment group as main effect and corresponding baseline value(s) as covariate, stratified by randomization factors (as per IVRS). Combined estimates of odds ratio versus placebo, 95% CI, and p-value were provided (through SAS MIANALYZE procedure).

[3] = On-treatment analysis, 150 Q2W (N = 1523)
[4] = On-treatment analysis, 150 Q2W (N = 1523), combined estimate for adjusted mean (SE)
[5] = Pattern Mixture Model sensitivity analysis, 150 Q2W (N = 1523)
[6] = Week 24, free PCSK9 levels at or above the median
[7] = Week 24, free PCSK9 levels below the median

Alirocumab: human anti-PCSK9 antibody; HCVR SEQ ID NO:1, LCVR SEQ ID NO:6; CDRs SEQ ID NOs 2/3/4/7/8/10
TEAEs related to ophthalmological events [1]: no particular signal was detected | Percent change from baseline in calculated LDL-C at week 24 (%), LS means (SE) ([2]; HeFH population (271 patients)): −56.3 (1.9) % | Percent change from baseline in calculated LDL-C at week 24, LS mean difference (SE) vs placebo ([2]; HeFH population): −63.2 (2.9) % | Calculated LDL-C percent change, LS mean difference vs placebo ([2]; ITT, Week 24): −61.9% | Calculated LDL-C, LS mean percent change from baseline ([2]; ITT, Week 24): −61.0% | Measured LDL-C, LS mean percent change from baseline ([2]; ITT, Week 24): −61.3% | Very high CV risk or high CV risk patients who reached calculated LDL-C <70 mg/dL or <100 mg/dL, respectively ([2]; ITT, Week 24): 80.7% | Proportion of patients reaching calculated LDL-C <70 mg/dL ([2]; ITT, Week 24, listed as alirocumab): 79.3% and 79% | Percent change from baseline in calculated LDL-C at week 24 (%), LS means (SE) ([2]; Non-HeFH population (1259 patients)): −62.1 (0.8) % | Percent change from baseline in calculated LDL-C at week 24, LS mean difference (SE) vs placebo ([2]; Non-HeFH population): −61.5 (1.4) % | Apo A1, LS mean (SE) change from baseline to Week 24 (%) [2, 3]: 4.2 (0.4) % | Apo A1, LS mean difference (SE) vs placebo, percent change from baseline at Week 24 [2, 3]: 2.9 (0.7) % | Apo B, LS mean (SE) change from baseline to Week 24 (%) [2, 3]: −54.3 (0.7) % | Apo B, LS mean difference (SE) vs placebo, percent change from baseline at Week 24 [2, 3]: −55.5 (1.2) % | Calculated LDL-C, LS mean (SE) change from baseline to Week 24 (%) [2, 3]: −62.8 (0.7) % | Calculated LDL-C, LS mean difference (SE) vs placebo, percent change from baseline at Week 24 [2, 3]: −63.5 (1.2) % | HDL-C, LS mean (SE) change from baseline to Week 24 (%) [2, 3]: 4.2 (0.4) % | HDL-C, LS mean difference (SE) vs placebo, percent change from baseline at Week 24 [2, 3]: 4.9 (0.7) % | Non-HDL-C, LS mean (SE) change from baseline to Week 24 (%) [2, 3]: −53.1 (0.6) % | Non-HDL-C, LS mean difference (SE) vs placebo, percent change from baseline at Week 24 [2, 3]: −53.7 (1.0) % | Total cholesterol, LS mean (SE) change from baseline to Week 24 (%) [2, 3]: −38.8 (0.5) % | Total cholesterol, LS mean difference (SE) vs placebo, percent change from baseline at Week 24 [2, 3]: −38.4 (0.8) % | Lipoprotein (a), LS mean difference (SE) vs placebo, percent change from baseline at Week 24 [2, 4]: −26.3 (1.3) % | Lipoprotein (a), change from baseline to Week 24 (%) [2, 4]: −30.2 (0.7) % | Triglycerides, LS mean difference (SE) vs placebo, percent change from baseline at Week 24 [2, 4]: −17.2 (1.4) % | Triglycerides, change from baseline to Week 24 (%) [2, 4]: −15.8 (0.8) % | Calculated LDL-C percent change, LS mean difference vs placebo ([2]; On-treatment, Week 24): −63.5% | Proportion of patients reaching calculated LDL-C <70 mg/dL ([2]; On-treatment, Week 24): 81.2% | Very high CV risk or high CV risk patients who reached calculated LDL-C <70 mg/dL or <100 mg/dL, respectively ([2]; On-treatment, Week 24): 82.8% | Calculated LDL-C, LS mean (SE) change from baseline to Week 24 (%) [2, 5]: −57.8 (0.8) % | Calculated LDL-C, LS mean difference (SE) vs placebo, percent change from baseline at Week 24 [2, 5]: −58.5 (1.3) % | Calculated LDL-C percent change from baseline, LS mean (SE) ([2]; Week 4): −64.8% | Calculated LDL-C percent change from baseline, LS mean (SE) ([2]; Week 8): −65.8% | Apo-B - Percent change from baseline to Week 12, LS mean difference vs. placebo ([2]; Week 12, ITT): placebo of −56% | Apolipoprotein A1 - Percent change from baseline to Week 12, LS mean difference vs. placebo ([2]; Week 12, ITT): placebo of 4% | Calculated LDL-C - Percent change from baseline to Week 12, LS mean difference vs. placebo ([2]; Week 12, ITT): placebo of −64.8% | Fasting TGs - Percent change from baseline to Week 12, combined estimate for adjusted mean difference vs. placebo ([2]; Week 12, ITT): vs. placebo of −17.9% | HDL-C - Percent change from baseline to Week 12, LS mean difference vs. placebo ([2]; Week 12, ITT): placebo of 5.6% | Lp(a) - Percent change from baseline to Week 12, combined estimate for adjusted mean difference vs. placebo ([2]; Week 12, ITT): vs. placebo of −25.1% | Non-HDL-C - Percent change from baseline to Week 12, LS mean difference vs. placebo ([2]; Week 12, ITT): placebo of −54.6% | Total-C - Percent change from baseline to Week 12, LS mean difference vs. placebo ([2]; Week 12, ITT): placebo of −39% | Calculated LDL-C percent change from baseline, LS mean (SE) ([2]; Week 12): −63.3% | Calculated LDL-C - Percent change from baseline to Week 12, LS mean difference vs. placebo ([2]; Week 12, On-treatment): placebo of −65.5% | Calculated LDL-C percent change from baseline, LS mean (SE) ([2]; Week 16): −64.5% | Calculated LDL-C percent change, LS mean difference vs placebo [2, 6]: −66.0% | Calculated LDL-C, LS mean percent change from baseline [2, 6]: −62.7% | Calculated LDL-C percent change, LS mean difference vs placebo [2, 7]: −58.0% | Calculated LDL-C, LS mean percent change from baseline [2, 7]: −59.4%
